# According to US20080267909A1, “PHAGOCYTE ENHANCEMENT THERAPY FOR ATHEROSCLEROSIS” (THE TRUSTEES OF COLUMBIA UNIVERSITY IN THE CITY OF NEW YORK, priority 2005, published 2008):
# Experiments:
# [1] = test system: FC-induced apoptotic macrophages; details: phagocytes pre-treated with 100 μM for 15 minutes; compared to untreated phagocytes; FIG. 2
# Description: Briefly, mouse peritoneal macrophages were labeled with the fluorophore calcein-AM (green) and then FC-loaded to induced apoptosis. Some of the macrophages were not FC-loaded, thus serving as a non-apoptotic control. The macrophages were added to a monolayer of octadecylrhodamine-labeled (red) macrophage phagocytes for 30 minutes at 37° C. The monolayers were then thoroughly rinsed with phosphate buffered saline (PBS). […] The percentage of rhodamine-labeled phagocytes with green inclusion was determined and quantified. Inclusion of green indicated the uptake of apoptotic cells into the phagocytes.
# [2] = test system: ingesting phagocytes (IPs) and non-IPs; assay: FC-induced apoptosis (annexin V) in IPs and non-IPs during 20 hour post-ingestion FC-loading; type: cell-based, mouse; details: 10 μM inhibitor; for apoptosis in IPs: 20 hours in FC-loading medium, FIG. 10A
# Description: FIG. 10A is a bar graph depicting the results of experiments in which the protocol described in FIG. 9C was used and the percent apoptosis was determined in non-IPs (cross-hatched bars) and IPs (black bars) that were incubated for 20 hours in FC-loading medium either in the absence or presence of 10 μM of the IKK inhibitor PS1145, 10 μM of the PI-3 kinase/Akt inhibitor […], or both compounds.
# (§1) FC-AMs were removed from the culture dish and cultured for 30 minutes with a monolayer of fresh macrophages (“phagocytes”) at an approximate ratio of 1:5 (FC-AMs:phagocytes). In certain experiments, the FC-AMs were labeled with Alexa Fluor 488 annexin V or Calcium Green™-AM for 20 minutes prior to addition to the phagocytes in order to mark those phagocytes that had ingested the FC-AMs (“ingesting phagocytes,” or “IPs”). The non-ingested apoptotic cells were then removed by thorough rinsing as described in Li et al. (2006, J. Biol. Chem. 281:6707-6717), and the phagocytes were incubated in fresh medium for the indicated times. In some experiments, the phagocytes were incubated during the post-ingestion incubation in medium containing acetyl-LDL and 58035 to maintain FC levels in the (ingesting phagocytes) IPs, inhibitors of Akt or NFκB, or various combinations of these reagents. To assay apoptosis in the phagocytes, the cells were stained with Alexa Fluor 594 annexin V and viewed by fluorescence microscopy. For quantification, 4-6 representative fields of cells at 40× magnification were counted to determine the number of apoptotic phagocytes and total phagocytes for each condition.
# Because NFκB is known to signal survival responses in cells, the functional significance of NFκB signaling in the survival response of IPs against FC-induced apoptosis was investigated. […] The NFkB and Akt survival pathways might represent independent, complementary survival pathways or they may signal through a common final mediator. […]
# [3] = test system: ingesting phagocytes (IPs) and non-IPs; assay: UV-induced apoptosis (annexin V) in IPs and non-IPs; type: cell-based, mouse; details: 10 μM inhibitor, 8 hour incubation after UV irradiation, FIG. 12
# [4] = test system: cholesterol trafficking to ACAT in the ER; assay: Whole-cell cholesterol esterification assay in phagocytes after ingestion of FC-AMs; type: cell-based, mouse; details: 1 μM during the post-ingestion period; FIG. 7
# Description: FIG. 7 is a bar graph depicting the results of experiments in which macrophages were incubated for 18 hours in medium alone (i.e., no exposure to FC-AMs) or in the same medium for the indicated time points after ingestion of FC-AMs. All of the incubations contained [^14C]oleate, and some of the phagocytes were incubated with 1 μM U18666A during the post-ingestion period to block cholesterol trafficking to the endoplasmic reticulum (ER). To make sure that the phagocytes would not be exposed to residual ACAT inhibitor in the FC-AMs, the FC-AMs for this experiment were generated by incubating macrophages from Acat1−/− mice with AcLDL without ACAT inhibitor. After the indicated time points, the macrophages were assayed for cholesteryl [^14C]oleate formation as an indicator of cholesterol trafficking to ACAT in the ER.
# After a 30 minute incubation of phagocytes with FC-AMs that were made using acetyl-LDL and macrophages from Acat1^−/− mice (i.e., no ACAT inhibitor), non-ingested apoptotic cells were removed, and the phagocytes were incubated in fresh medium containing [^14C]oleate for specific times. […] Cholesterol esterification activity was then determined in lipid extracts of the cells by measuring the cellular content of cholesteryl [^14C]oleate by thin-layer chromatography (Tabas et al., 1987, J. Clin. Invest. 79:418-426). […]
# apoptotic J774 cells = assay: Phagocytic uptake of apoptotic J774 cells by peritoneal macrophages, ROCK inhibitor (Example 4); type: cell-based; details: 10 μM, one hour pre-treatment, 45 minutes with apoptotic cells; vs untreated; FIG. 4
# Description: As discussed in Example 6, statins can inhibit RhoA activation. RhoA activation inhibits phagocytic clearance of apoptotic cells and so inhibitors of RhoA or the downstream RhoA effector, Rho kinase (ROCK) can enhance or at least contribute to limit or decrease Rho-mediated inhibition of phagocytic clearance. […] In these experiments, peritoneal macrophages (phagocytes) were treated for one hour in the presence or absence of 10 μM Y-27632. Calcein-AM-labeled (green) apoptotic J774 cells (UV-irradiated) were then added to the phagocytes at a ratio of 1:1, in the absence or presence of Y-27632. After 45 minutes, non-internalized cells were removed by rinsing, and the percentage of phagocytes that had internalized labeled apoptotic macrophages was quantified by fluorescence microscopy. Results are depicted in FIG. 4 as the as the mean ±SEM; n=3 fields of cells, each containing approximately 150 cells.
# [5] = test system: UV-induced apoptotic J774 macrophages; assay: Phagocytosis of UV-induced apoptotic J774 macrophages by J744 murine macrophages (Example 4); type: cell-based; details: 10 μM, one hour pre-treatment, 45 minutes; vs untreated; FIG. 5
# Description: In a similar experiment, J744 murine macrophages (phagocytes) were pretreated in the presence of absence of the ROCK inhibitor fasudil (10 μM) for one hour. The phagocytes were then incubated for 45 minutes, with or without fasudil, with fluorescently labeled UV-induced apoptotic J774 macrophages (“UV-Ams”). The percentage of phagocytes that had engulfed at least one UV-AM was quantified using fluorescent microscopy. […] Such compounds are useful for treating cardiovascular disease.
# [6] = test system: ingesting phagocytes (IPs); assay: Apoptosis in phagocytes that had ingested FC-AMs, incubated with SRA ligand; type: cell-based, mouse
# Description: as §1
# FC-induced apoptosis in macrophages requires UPR activation in combination with engagement of the type A scavenger receptor (SRA), both of which occur with acetyl-LDL-induced FC loading. […]
# [7] = test system: UV-irradiated apoptotic J774 cells; assay: Efferocytosis of UV-irradiated apoptotic J774 cells by cytokine pre-treated primary efferocytes; type: cell-based; details: pre-treated about 24 hours, challenged 30 minutes; FIG. 17
# Description: FIG. 17. Primary efferocytes were pre-treated with the indicated cytokine for about 24 hours and then challenged for 30 minutes with UV-irradiated apoptotic J774 cells and the percent efferocytosis was determined.
# Thus, drugs that mimic this effect can promote the uptake of apoptotic macrophages in advanced atherosclerotic lesions (see in allergic, cellular and humoral responses to parasitic and extracellular pathogens (see Nat Rev Immunol. 2003 January;3(1):23-35).
molecule,measurement,setting,value
"CCN(CC)CC.Nc1ncnc2c1ncn2C1OC2COP(O)(=S)OC2C1O (single isomer, unassigned) [PKA inhibitor, adenosine 3′,5′-cyclic monophosphorothioate, Rp-isomer, triethylammonium salt]",percentage of rhodamine-labeled phagocytes with green inclusion (uptake of FC-induced apoptotic macrophages),[1],internalized more FC-induced apoptotic macrophages than untreated phagocytes
O=c1cc(N2CCOCC2)oc2c(-c3ccccc3)cccc12 [LY294002],apoptosis in IPs,[2],32.0±5.7%
O=C(Nc1cc(Cl)cc2c1[nH]c1cnccc12)c1cccnc1 [PS1145],UV-induced apoptosis in non-IPs / compared to non-IPs,[3],no effect
same,UV-induced apoptosis in IPs,[3]; vs no-inhibitor control,only a small increase
same,FC-induced apoptosis in IPs (in words),"[2]; 20 hours FC-loading, vs no inhibitor",very similar effect
same,apoptosis in IPs,[2],32.0±3.4%
CCN(CC)CCO[C@H]1CC[C@@]2(C)C(=CC[C@@H]3[C@@H]2CC[C@]2(C)C(=O)CC[C@@H]32)C1 [U18666A],FC-AM-induced increase in cholesterol esterification (cholesteryl [14C]oleate formation),[4],completely blocked
"C[C@@H](N)[C@H]1CC[C@H](C(=O)Nc2ccncc2)CC1 [Y-27632, trans-4-[(1R)-1-aminoethyl]-N-pyridin-4-ylcyclohexanecarboxamide]",percentage of phagocytes ingesting apoptotic macrophages,apoptotic J774 cells,increase
O=S(=O)(c1cccc2cnccc12)N1CCCNCC1 [fasudil],percentage phagocytosis (phagocytes that had engulfed at least one UV-AM),[5],increased
fucoidan,induction of apoptosis in the IPs,[6],did not induce apoptosis
"interleukin-4: cytokine that promotes alternative activation of macrophages (protein, UniProt P05112 25-153, looked up) Interleukin-4: HKCDITLQEIIKTLNSLTEQKTLCTELTVTDIFAASKNTTEKETFCRAATVLRQFYSHHEKDTRCLGATAQQFHRHKQLIRFLKRLDRNLWGLAGLNSCPVKEANQSTLENFLERLKTIMREKYSKCSS",percent efferocytosis (ability of phagocytes to engulf apoptotic macrophages),[7],promotes the ability of these phagocytes to engulf apoptotic macrophages
